Measurements from US20230192661A1, “1, 4, 5, 6-TETRAHYDROPYRIMIDINE-2-AMINE DERIVATIVE” (UBE Corporation, priority 2020, published 2023).

Experiments:
αvβ1 = biological target: T1, αvβ1 (UniProt G3HZ55+P06756); assay: αvβ1 cell adhesion inhibition test (αv-transfected CHO cells on human fibronectin); format: cell-based; details: human fibronectin coating, 1 mM MnCl2, 1 hour, read-out: IC50 (rate of inhibition of cell adhesion, αvβ1)
T1 construct: expressed in transfected cells; host or cells: CHO cells deficient in α5 gene, transfected with αv gene
Summary of the method: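 α5-deficient CHO cells expressing αv, at 1×10^6 cells/mL in DMEM with 1 mM MnCl2 plus test compound, allowed to adhere 1 h at 37° C to human fibronectin (coated at 1.25 μg/mL). Adherent cells read by crystal violet absorbance, normalized to uncoated (100%) and DMSO (0%) wells. IC50 reported as banded classes.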

[1] = system: TGF-β activation (phosphorylated SMAD3); assay: TGF-β activation inhibition test (inhibition of SMAD3 phosphorylation in TFK-1 cells); format: cell-based; details: 48 h, fibronectin-coated plate, cultured 2 days, read-out: IC50 (rate of inhibition of phosphorylated SMAD3)
Summary of the method: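 TFK-1 cells on fibronectin-coated wells cultured 2 days at 37° C. with compound in RPMI 1640 with 1% FBS. Phospho-SMAD3 (Ser423/425) measured by cellular kit as DeltaF; inhibition scaled between DMSO (0%) and 10 μM LY364947 (100%), and IC50 calculated.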

T1 sequence (P06756 31-889 limits assumed): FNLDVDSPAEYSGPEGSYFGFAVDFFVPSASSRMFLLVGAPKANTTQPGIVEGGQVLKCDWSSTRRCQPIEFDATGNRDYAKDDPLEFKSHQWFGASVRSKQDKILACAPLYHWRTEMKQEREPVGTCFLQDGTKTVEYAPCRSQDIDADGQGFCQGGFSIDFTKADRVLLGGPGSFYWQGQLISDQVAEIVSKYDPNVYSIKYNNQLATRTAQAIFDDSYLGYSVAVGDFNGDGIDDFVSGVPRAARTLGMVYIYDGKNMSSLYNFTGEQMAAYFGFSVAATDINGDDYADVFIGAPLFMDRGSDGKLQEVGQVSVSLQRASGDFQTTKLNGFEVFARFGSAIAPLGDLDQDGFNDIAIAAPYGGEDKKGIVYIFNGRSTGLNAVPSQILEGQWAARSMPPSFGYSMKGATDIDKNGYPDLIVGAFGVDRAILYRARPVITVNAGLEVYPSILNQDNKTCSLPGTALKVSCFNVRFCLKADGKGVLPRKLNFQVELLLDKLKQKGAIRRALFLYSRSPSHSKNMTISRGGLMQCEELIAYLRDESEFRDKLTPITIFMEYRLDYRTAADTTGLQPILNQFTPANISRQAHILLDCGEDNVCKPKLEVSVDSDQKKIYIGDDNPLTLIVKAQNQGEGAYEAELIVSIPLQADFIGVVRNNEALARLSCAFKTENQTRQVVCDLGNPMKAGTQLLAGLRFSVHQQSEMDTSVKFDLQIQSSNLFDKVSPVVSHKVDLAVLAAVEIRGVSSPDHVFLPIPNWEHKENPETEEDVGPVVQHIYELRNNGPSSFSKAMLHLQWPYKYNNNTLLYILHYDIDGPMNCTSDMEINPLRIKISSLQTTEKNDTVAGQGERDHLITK
T1 sequence (P06756 891-1048 limits assumed): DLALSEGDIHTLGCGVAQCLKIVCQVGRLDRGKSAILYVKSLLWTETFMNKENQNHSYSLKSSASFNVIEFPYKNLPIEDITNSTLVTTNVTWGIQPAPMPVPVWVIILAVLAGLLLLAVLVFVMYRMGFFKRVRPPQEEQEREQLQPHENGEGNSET
T1 sequence (G3HZ55 21-798): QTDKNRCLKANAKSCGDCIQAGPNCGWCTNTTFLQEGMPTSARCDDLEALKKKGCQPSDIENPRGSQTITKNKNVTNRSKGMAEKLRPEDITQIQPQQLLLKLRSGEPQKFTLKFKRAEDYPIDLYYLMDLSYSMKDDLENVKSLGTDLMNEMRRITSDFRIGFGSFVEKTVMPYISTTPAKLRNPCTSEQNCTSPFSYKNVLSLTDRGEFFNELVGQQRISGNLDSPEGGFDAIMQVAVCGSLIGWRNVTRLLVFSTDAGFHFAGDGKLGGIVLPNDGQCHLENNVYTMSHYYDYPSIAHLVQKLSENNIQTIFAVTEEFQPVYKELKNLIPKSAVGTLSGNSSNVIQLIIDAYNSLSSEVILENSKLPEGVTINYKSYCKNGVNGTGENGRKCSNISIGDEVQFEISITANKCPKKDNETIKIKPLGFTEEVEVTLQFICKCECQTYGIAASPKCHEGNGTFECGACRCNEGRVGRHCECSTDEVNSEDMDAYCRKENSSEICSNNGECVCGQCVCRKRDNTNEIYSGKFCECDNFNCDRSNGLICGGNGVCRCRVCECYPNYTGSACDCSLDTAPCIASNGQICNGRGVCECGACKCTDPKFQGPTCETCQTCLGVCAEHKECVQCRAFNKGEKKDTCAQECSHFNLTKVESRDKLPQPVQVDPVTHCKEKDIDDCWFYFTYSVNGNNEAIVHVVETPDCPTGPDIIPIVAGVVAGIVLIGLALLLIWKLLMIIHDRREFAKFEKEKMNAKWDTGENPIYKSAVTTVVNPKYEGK

Compound	IC50 (αvβ1) [nM]	IC50 [1] [nM]
O=C(O)C[C@H](NC(=O)CNC(=O)c1cc(NC2=NCC(F)CN2)c2c(F)n[nH]c2c1)c1cc(Cl)cc(C(F)(F)F)c1 (stereo partly drawn) [Example 48-(b), (3S)-3-(3-chloro-5-(trifluoromethyl)phenyl)-3-(2-(3-fluoro-4-((5-fluoro-1,4,5,6-tetrahydropyrimidin-2-yl)amino)-1H-indazole-6-carboxamido)acetamido) propanoic acid]	3 to 10	< 10
O=C(O)C[C@H](NC(=O)CNC(=O)c1cc(NC2=NCC(F)CN2)c2c(Cl)n[nH]c2c1)c1cc(Cl)cc(C(F)(F)F)c1 (stereo partly drawn) [Example 49-(b), (3S)-3-(2-(3-chloro-4-((5-fluoro-1,4,5,6-tetrahydropyrimidin-2-yl)amino)-1H-indazole-6-carboxamido)acetamido)-3-(3-chloro-5-(trifluoromethyl)phenyl)propanoic acid]	< 3	< 10
O=C(O)C[C@H](NC(=O)CNC(=O)c1cc(NC2=NCC(O)CN2)c2cn[nH]c2c1)c1cc(Cl)cc(C(F)(F)F)c1 (stereo partly drawn) [Example 50-(b), (3S)-3-(3-chloro-5-(trifluoromethyl)phenyl)-3-(2-(4-((5-hydroxy-1,4,5,6-tetrahydropyrimidin-2-yl)amino)-1H-indazole-6-carboxamido)acetamido)propanoic acid]	10 to 30	≥ 100
O=C(O)C[C@H](NC(=O)CNC(=O)c1cc(NC2=NCCCN2)c2cn[nH]c2c1)c1cc(Cl)cc(C(F)(F)F)c1 [Example 51-(b), (S)-3-(3-chloro-5-(trifluoromethyl)phenyl)-3-(2-(4-((1,4,5,6-tetrahydropyrimidin-2-yl)amino)-1H-indazole-6-carboxamido)acetamido)propanoic acid]	30 to 100	50 to 100
O=C(O)C[C@H](NC(=O)CNC(=O)c1cc(NC2=NCC(F)CN2)cc2[nH]ncc12)c1cc(Cl)cc(C(F)(F)F)c1 (stereo partly drawn) [Example 52-(b), (3S)-3-(3-chloro-5-(trifluoromethyl)phenyl)-3-(2-(6-((5-fluoro-1,4,5,6-tetrahydropyrimidin-2-yl)amino)-1H-indazole-4-carboxamido)acetamido)propanoic acid]	< 3	< 10
O=C(O)C[C@H](NC(=O)CNC(=O)c1cc(NC2=NCC(F)CN2)cc2[nH]ncc12)c1cc(Br)cc(C(F)(F)F)c1 (stereo partly drawn) [Example 53-(b), (3S)-3-(3-bromo-5-(trifluoromethyl)phenyl)-3-(2-(6-((5-fluoro-1,4,5,6-tetrahydropyrimidin-2-yl)amino)-1H-indazole-4-carboxamido)acetamido)propanoic acid]	< 3	< 10
O=C(O)C[C@H](NC(=O)CNC(=O)c1cc(NC2=NCC(F)CN2)cc2[nH]ncc12)c1cc(I)cc(C(F)(F)F)c1 (stereo partly drawn) [Example 54-(b), (3S)-3-(2-(6-((5-fluoro-1,4,5,6-tetrahydropyrimidin-2-yl)amino)-1H-indazole-4-carboxamido)acetamido)-3-(3-iodo-5-(trifluoromethyl)phenyl)propanoic acid]	< 3	< 10
O=C(O)C[C@H](NC(=O)CNC(=O)c1cc(NC2=NCC(F)CN2)cc2[nH]ncc12)c1ccc(F)c(C(F)(F)F)c1 (stereo partly drawn) [Example 55-(b), (3S)-3-(2-(6-((5-fluoro-1,4,5,6-tetrahydropyrimidin-2-yl)amino)-1H-indazole-4-carboxamido)acetamido)-3-(4-fluoro-3-(trifluoromethyl)phenyl)propanoic acid]	< 3	< 10
O=C(O)C[C@H](NC(=O)CNC(=O)c1cc(NC2=NCC(F)CN2)cc2[nH]ncc12)c1cccc(C(F)(F)F)c1 (stereo partly drawn) [Example 56-(b), (3S)-3-(2-(6-((5-fluoro-1,4,5,6-tetrahydropyrimidin-2-yl)amino)-1H-indazole-4-carboxamido)acetamido)-3-(3-(trifluoromethyl)phenyl)propanoic acid]	3 to 10	< 10
